Measurements reported in patent US20190359653A1, “SELECTIVE PEPTIDE INHIBITORS OF FRIZZLED” (Genentech, Inc., priority 2016, published 2019).

Columns and labels:
[1] = tested on: intestinal epithelia of C57BL/6 mice; test: RT-PCR of intestinal epithelia from treated mice; assay type: in vivo, mouse; conditions: intraperitoneal, 6 h; FIGS. 20A-20C
Procedure: RNA from organoid samples was isolated using the RNeasy Micro kit (cat. no. 74004; Qiagen) according to the manufacturer's instructions. Mouse small intestine RNA was collected using the RNeasy Mini Kit (cat. no. 74104; Qiagen). qRT-PCR was performed in 10 μL reactions with 50 ng total RNA using One-step Real-time RT-PCR mastermix (cat. no. 4392938; Life Technologies) according to the manufacturer's instructions. Taqman probes from Life Technologies were used: Actb (Mm01205647_g1); Lgr5 (Mm01251801_m1); Axin2 (Mm00443610_m1); Ascl2 (Mm01268891_g1); Olfm4 (Mm01320260_m1); Muc2 (Mm01276696_m1); ACTB(Hs99999903_m1); ACTB(Mm00607939_s1); GAPDH (Mm99999915_g1); and GAPDH(Hs03929097_g1). RT-PCR reactions were run using a 7900HT Fast Real-Time PCR system (ABI) at the following thermal cycling conditions: Holding step of 30 min at 48° C., followed by a holding step of 10 min at 95° C., and 40 cycles of 10 sec at 95° C. and 1 min at 60° C. Values were normalized to actin transcript levels and then normalized to control as described in the figure legend.
C57BL/6 female mice (8 weeks old) were subjected to intraperitoneal injection once per hour (˜150-200 μL injection volume for five injections) until the indicated peptide dose was reached. […]
The pharmacological effect of dFz7-21 was further investigated in vivo. […] Following treatment, RT-PCR was performed to quantify transcript levels.

[2] = tested on: mouse intestinal organoids; test: organoid budding / stem cell potential; assay type: cell-based; conditions: 48 h; dFz7-21 1-200 μM, Fz7-21S 200 μM; FIG. 18
Procedure: Mouse organoids were established from isolated crypts collected from the entire length of the small intestine and maintained as previously described (Sato et al. (2009) Nature 459, 262-265 (2009). All mouse derived tissue was performed according to the animal use guidelines of Genentech, a Member of the Roche Group, and the Institutional Animal Care and Use Committee, conforming to California State legal and ethical practices. Mouse sex was not selected for. Organoids were passaged at least twice per week and grown using IntestiCult Organoid growth media (cat. no. 06005; StemCell Technologies). […]
The organoid culture system faithfully recapitulates the intestinal epithelium including the presence of crypt-villus morphology. […] Therefore, stem cell function of the organoid population (a Wnt-dependent process) was quantitatively assessed by scoring the number of formed buds per organoid (Grabinger et al. (2014) “Ex vivo culture of intestinal crypt organoids as a model system for assessing cell death induction in intestinal epithelial cells and enteropathy.” Cell Death & Disease 5, e1228). […] Morphologies of representative mouse intestinal organoids after 48 h treatment are shown in FIGS. 17A-G. Next, organoid stem cell (SC) potential after peptide treatment was quantified. […]

Sequence | Lgr5, Ascl2 and Axin2 transcript levels [1] | budding events / organoid stem cell potential [2]
LPSDDLEFWSHVMY [Fz7-21S, negative control] | did not affect | did not show any major effects
LPSDDLEFWCHVMY [dFz7-21] | significantly down regulated | dramatically reduced
